Tested on: 521955-158-R2-J5-PDC complex spheroid viability
Assay: Anticancer human tumor 521955-158-R2-J5-PDC patient-derived pancreatic carcinoma cell line growth inhibition [GQUAD]
Details: for IC50: curve of first compound; for viability, T/C: stronger effect = lower value
Procedure, shortened: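 Multi-cell-type spheroids of tumor cells with HUVEC and mesenchymal stem cells, treated with drug combinations. Concentrations descend in half-log steps from near clinical Cmax, or from 10 microM where Cmax is unknown; viability read-out.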
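Note: spheroids exposed to agents for one week before reading.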
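Throughout, for viability, T/C: 100% = DMSO vehicle control viability.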

Structure (SMILES): Cn1ncnc1[C@H]1c2n[nH]c(=O)c3cc(F)cc(c23)N[C@@H]1c1ccc(F)cc1 + CN(C)c1ccc(Nc2c3ccc(NC(=O)CCN4CCCC4)cc3nc3cc(NC(=O)CCN4CCCC4)ccc23)cc1
- IC50 (second compound 0.0316 µM): > 316 nM
- IC50 (second compound 0.1 µM): > 316 nM
- IC50 (second compound 0.316 µM): > 316 nM
- IC50 (second compound 1 µM): > 316 nM
- IC50 (second compound 3.16 µM): > 316 nM
- IC50 (second compound 10 µM): > 316 nM
- viability, T/C (second compound 0.0316 µM, first compound 0.000999 µM): 99.1%
- viability, T/C (second compound 0.0316 µM, first compound 0.00316 µM): 89%
- viability, T/C (second compound 0.0316 µM, first compound 0.00999 µM): 104%
- viability, T/C (second compound 0.0316 µM, first compound 0.0316 µM): 91.1%
- viability, T/C (second compound 0.0316 µM, first compound 0.0999 µM): 90.7%
- viability, T/C (second compound 0.0316 µM, first compound 0.316 µM): 80%
- viability, T/C (second compound 0.1 µM, first compound 0.000999 µM): 92.8%
- viability, T/C (second compound 0.1 µM, first compound 0.00316 µM): 98.7%
- viability, T/C (second compound 0.1 µM, first compound 0.00999 µM): 90%
- viability, T/C (second compound 0.1 µM, first compound 0.0316 µM): 93.9%
- viability, T/C (second compound 0.1 µM, first compound 0.0999 µM): 92.2%
- viability, T/C (second compound 0.1 µM, first compound 0.316 µM): 81.4%
- viability, T/C (second compound 0.316 µM, first compound 0.000999 µM): 97.5%
- viability, T/C (second compound 0.316 µM, first compound 0.00316 µM): 95.7%
- viability, T/C (second compound 0.316 µM, first compound 0.00999 µM): 93.3%
- viability, T/C (second compound 0.316 µM, first compound 0.0316 µM): 90.6%
- viability, T/C (second compound 0.316 µM, first compound 0.0999 µM): 88.2%
- viability, T/C (second compound 0.316 µM, first compound 0.316 µM): 83.7%
- viability, T/C (second compound 1 µM, first compound 0.000999 µM): 99.6%
- viability, T/C (second compound 1 µM, first compound 0.00316 µM): 90.2%
- viability, T/C (second compound 1 µM, first compound 0.00999 µM): 92.1%
- viability, T/C (second compound 1 µM, first compound 0.0316 µM): 97%
- viability, T/C (second compound 1 µM, first compound 0.0999 µM): 89.2%
- viability, T/C (second compound 1 µM, first compound 0.316 µM): 73.7%
- viability, T/C (second compound 3.16 µM, first compound 0.000999 µM): 87.4%
- viability, T/C (second compound 3.16 µM, first compound 0.00316 µM): 77.9%
- viability, T/C (second compound 3.16 µM, first compound 0.00999 µM): 76.4%
- viability, T/C (second compound 3.16 µM, first compound 0.0316 µM): 67.5%
- viability, T/C (second compound 3.16 µM, first compound 0.0999 µM): 74.7%
- viability, T/C (second compound 3.16 µM, first compound 0.316 µM): 66.3%
- viability, T/C (second compound 10 µM, first compound 0.000999 µM): 68.1%
- viability, T/C (second compound 10 µM, first compound 0.00316 µM): 70.6%
- viability, T/C (second compound 10 µM, first compound 0.00999 µM): 70.7%
- viability, T/C (second compound 10 µM, first compound 0.0316 µM): 60.5%
- viability, T/C (second compound 10 µM, first compound 0.0999 µM): 61.4%
- viability, T/C (second compound 10 µM, first compound 0.316 µM): 59.4%
